# Reference: PubChem BioAssay (NCI)
#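 Five concentrations, 48 hours, 96-well plates. GI50: concentration for 50% inhibition of growth. TGI is the concentration that stops growth completely.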
# Legend:
# Experiment in all cases: growth of human tumour cells (NCI), 48 h
# ACHN renal = tested on: ACHN renal
# DMS 114 small cell lung = tested on: DMS 114 small cell lung
# DMS 273 small cell lung = tested on: DMS 273 small cell lung
# KM20L2 colon = tested on: KM20L2 colon
# LOX IMVI melanoma = tested on: LOX IMVI melanoma
# OVCAR-4 ovarian = tested on: OVCAR-4 ovarian
# TK-10 renal = tested on: TK-10 renal
# BT-549 breast = tested on: BT-549 breast
# CAKI-1 renal = tested on: CAKI-1 renal
# MDA-MB-435 = tested on: MDA-MB-435
# NCI/ADR-RES ovarian = tested on: NCI/ADR-RES ovarian
# PC-3 prostate = tested on: PC-3 prostate
# T-47D breast = tested on: T-47D breast
Structure (SMILES),TGI (ACHN renal),TGI (DMS 114 small cell lung),TGI (DMS 273 small cell lung),TGI (KM20L2 colon),TGI (LOX IMVI melanoma),TGI (OVCAR-4 ovarian),TGI (TK-10 renal),TGI (BT-549 breast),TGI (CAKI-1 renal),TGI (MDA-MB-435),TGI (NCI/ADR-RES ovarian),TGI (PC-3 prostate),TGI (T-47D breast),GI50 (ACHN renal),GI50 (CAKI-1 renal),GI50 (OVCAR-4 ovarian),GI50 (BT-549 breast),GI50 (NCI/ADR-RES ovarian),GI50 (PC-3 prostate),GI50 (TK-10 renal)
CC1CC2=C(S(=O)(=O)c3ccccc3)CC(S(=O)(=O)c3ccccc3)(S(=O)(=O)c3ccccc3)CC21 (configuration not stated),> 100 µM,> 100 µM,> 100 µM,> 100 µM,> 100 µM,> 100 µM,> 100 µM,–,–,–,–,–,–,–,–,–,–,–,–,–
CCOC(=O)Cn1c(=O)ccn(COCCO)c1=O,> 100 µM,–,–,–,> 100 µM,> 100 µM,> 100 µM,> 100 µM,> 100 µM,> 100 µM,> 100 µM,> 100 µM,> 100 µM,–,–,–,–,–,–,–
Clc1ccc(C[P+](c2ccccc2)(c2ccccc2)c2ccccc2)c(Cl)c1,47.6 µM,6 µM,10.1 µM,18.9 µM,12.9 µM,35.6 µM,25.6 µM,–,–,–,–,–,–,–,–,–,–,–,–,–
C[C@@H]1Nc2cc(NC(=O)OCCF)nc(N)c2N=C1c1ccccc1,> 100 µM,–,–,–,–,> 100 µM,–,> 100 µM,–,< 0.0001 µM,< 0.0001 µM,> 100 µM,> 100 µM,< 0.0001 µM,< 0.0001 µM,> 100 µM,–,–,–,–
CCOC(=O)CNC(=O)N(CC)C12CC3CC(CC(C3)C1)C2,–,274 µM,315 µM,223 µM,252 µM,536 µM,–,–,313 µM,–,402 µM,–,–,–,–,–,–,–,–,–
CCOC(=O)c1ccc(N[C@@H]2c3cc4c(cc3C(c3cc(OC)c(O)c(OC)c3)[C@H]3C(=O)OCC32)OCO4)cc1O (some centres not stated),–,2.03 µM,1.77 µM,> 22.3 µM,0.442 µM,> 100 µM,–,–,3.26 µM,–,99.3 µM,–,–,–,–,–,–,–,–,–
COc1cc2oc(-c3ccc(O)cc3)c(OC)c(=O)c2c(O)c1OC,> 100 µM,–,–,–,–,> 100 µM,> 100 µM,> 100 µM,> 100 µM,–,> 100 µM,> 100 µM,–,35.8 µM,45.1 µM,99.2 µM,27.7 µM,30.9 µM,40.6 µM,62.4 µM
CCOP(=O)(OCC)C(c1ccc(F)cc1)N(C(=O)NC(F)(F)F)c1cccc(C(F)(F)F)c1 (configuration not stated),> 100 µM,–,–,–,> 100 µM,> 100 µM,> 100 µM,> 100 µM,> 100 µM,> 100 µM,> 100 µM,> 100 µM,> 100 µM,–,–,–,–,–,–,–
CCC(C)NC1=NCC(C)S1 (configuration not stated),> 100 µM,–,–,–,> 100 µM,–,–,> 100 µM,> 100 µM,> 100 µM,–,> 100 µM,> 100 µM,–,–,–,–,–,–,–
COCCCNc1nc(N)c(C#N)c(C#N)c1C#N,> 10 µM,–,–,–,> 10 µM,> 10 µM,> 10 µM,–,> 10 µM,> 10 µM,> 10 µM,> 10 µM,> 10 µM,–,–,–,–,–,–,–
COc1ccc(S(=O)(=O)c2ccccc2[N+](=O)[O-])cc1,–,> 100 µM,> 100 µM,> 100 µM,> 100 µM,> 100 µM,> 100 µM,–,–,–,–,–,–,–,–,–,–,–,–,–
CC1CCCCNC1=S (configuration not stated),> 10 µM,–,–,–,> 10 µM,–,> 10 µM,> 10 µM,–,> 10 µM,–,> 10 µM,> 10 µM,–,–,–,–,–,–,–
CC(=O)Nc1ccc(/C=C/c2ccc(NC(=O)Nc3ccc(/C=C/c4ccc(NC(C)=O)cc4S(=O)(=O)O)c(S(=O)(=O)O)c3)cc2S(=O)(=O)O)c(S(=O)(=O)O)c1,–,> 100 µM,> 100 µM,> 100 µM,> 100 µM,> 100 µM,–,–,–,–,> 100 µM,–,–,–,–,–,–,–,–,–
